Experimental data as given in patent publication US20260265233A1, “BENZOTHIOPHENE DERIVATIVES AS RXFP1 AGONISTS” (BRISTOL-MYERS SQUIBB COMPANY, priority 2021, published 2026).

What follows are compounds tested against T1, human RXFP1 (Homo sapiens, UniProt Q9HBX9) (assay: hRXFP1 HEK293 cAMP assay (HTRF)). Settings: HEK293 cells stably expressing human RXFP1; 30 min at rt; intracellular cAMP by HTRF.
T1 construct: expressed in transfected cells
T1 sequence (Q9HBX9 1-757): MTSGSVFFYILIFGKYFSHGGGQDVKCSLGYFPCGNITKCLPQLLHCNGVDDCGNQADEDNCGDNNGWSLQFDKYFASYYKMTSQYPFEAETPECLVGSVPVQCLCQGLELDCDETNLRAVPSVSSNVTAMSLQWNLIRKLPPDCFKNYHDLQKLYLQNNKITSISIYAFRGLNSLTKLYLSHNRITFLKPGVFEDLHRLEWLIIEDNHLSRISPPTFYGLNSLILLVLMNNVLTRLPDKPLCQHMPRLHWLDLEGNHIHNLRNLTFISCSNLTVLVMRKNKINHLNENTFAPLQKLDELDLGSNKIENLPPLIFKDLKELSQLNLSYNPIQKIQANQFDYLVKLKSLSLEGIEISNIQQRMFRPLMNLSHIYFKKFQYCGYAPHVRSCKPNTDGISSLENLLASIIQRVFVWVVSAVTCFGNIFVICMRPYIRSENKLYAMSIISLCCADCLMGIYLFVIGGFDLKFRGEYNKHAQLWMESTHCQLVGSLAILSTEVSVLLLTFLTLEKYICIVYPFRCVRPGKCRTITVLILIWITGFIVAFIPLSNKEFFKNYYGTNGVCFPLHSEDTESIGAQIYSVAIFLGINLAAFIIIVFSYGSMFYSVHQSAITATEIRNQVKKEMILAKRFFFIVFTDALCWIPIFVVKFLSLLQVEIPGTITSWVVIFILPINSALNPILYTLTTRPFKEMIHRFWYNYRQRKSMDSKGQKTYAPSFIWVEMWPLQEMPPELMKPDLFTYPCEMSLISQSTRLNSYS
Type: cell-based
Procedure: RXFP1 Cyclic Adenosine Monophosphate (cAMP) Assays. Human embryonic kidney cells 293 (HEK293) cells and HEK293 cells stably expressing human RXFP1, were cultured in MEM medium supplemented with 10% qualified FBS, and 300 μg/ml hygromycin (Life Technologies). Cells were dissociated and suspended in assay buffer. The assay buffer was HBSS buffer (with calcium and magnesium) containing 20 mM HEPES, 0.05% BSA, and 0.5 mM IBMX. Cells (3000 cells per well, except 1500 cell per well for HEK293 cells stably expressing human RXFP1) were added to 384-well Proxiplates (Perkin-Elmer). Cells were immediately treated with test compounds in DMSO (2% final) at final concentrations in the range of 0.010 nM to 50 μM. Cells were incubated for 30 min at rt. The level of intracellular cAMP was determined using the HTRF HiRange cAMP assay reagent kit (Cisbio) according to manufacturer's instructions. Solutions of cryptate conjugated anti-cAMP and d2 fluorophore-labelled cAMP were made in a supplied lysis buffer separately. Upon completion of the reaction, the cells were lysed with equal volume of the d2-cAMP solution and anti-cAMP solution. After a 1 h rt incubation, time-resolved fluorescence intensity was measured using the Envision (Perkin-Elmer) at 400 nm excitation and dual emission at 590 nm and 665 nm. A calibration curve was constructed with an external cAMP standard at concentrations ranging from 2.7 μM to 0.1 pM by plotting the fluorescent intensity ratio from 665 nm emission to the intensity from the 590 nm emission against cAMP concentrations. The potency and activity of a compound to […] cAMP production was then determined by fitting to a 4-parametric logistic equation from a plot of cAMP level versus compound concentrations.
The examples disclosed below were tested in the human RXFP1 (hRXFP1) HEK293 cAMP assay described above and found to have agonist activity.

**Q.** How did the EC50 turn out when `COc1ccc(C2CCCC(O)C2)cc1C(=O)Nc1c(C(=O)Nc2ccc(F)c(C(F)(F)F)c2)sc2cc(C(F)(F)F)ccc12` (single isomer, unassigned) [Example 33, N-(4-fluoro-3-(trifluoromethyl)phenyl)-3-(5-(3-hydroxycyclohexyl)-2-methoxybenzamido)-6-(trifluoromethyl)benzo[b]thiophene-2-carboxamide] was run?
**A.** 216 nM

**Q.** For `COc1ccc(C(=O)N2CCC3(CC2)COC3)cc1C(=O)Nc1c(C(=O)Nc2ccc(F)c(C(F)(F)F)c2)sc2cc(C(F)(F)F)ccc12` [Example 222, N-(4-fluoro-3-(trifluoromethyl)phenyl)-3-(2-methoxy-5-(2-oxa-7-azaspiro[3.5]nonane-7-carbonyl)benzamido)-6-(trifluoromethyl) benzo[b] thiophene-2-carboxamide], which EC50 is on record?
**A.** 1610 nM

**Q.** `COc1ccc(C(=O)NCC2(S(C)(=O)=O)CC2)cc1C(=O)Nc1c(C(=O)Nc2ccc(F)c(C(F)(F)F)c2)sc2cc(Cl)ncc12` [Example 196, N3-(6-chloro-2-((4-fluoro-3-(trifluoromethyl)phenyl)carbamoyl)thieno[3,2-c]pyridin-3-yl)-4-methoxy-N1-((1-(methylsulfonyl)cyclopropyl)methyl) isophthalamide] was tested. Which EC50 did it give?
**A.** 70 nM

**Q.** With `COc1ccc(C2=NOC(C(C)(C)O)C2)cc1C(=O)Nc1c(C(=O)Nc2ccc(F)c(C(F)(F)F)c2)sc2cc(C(F)(F)F)ccc12` (single isomer, unassigned) [Example 258, N-[4-fluoro-3-(trifluoromethyl)phenyl]-3-{5-[5-(2-hydroxypropan-2-yl)-4,5-dihydro-1,2-oxazol-3-yl]-2-methoxy-benzamido}-6-(trifluoromethyl)-1-benzothiophene-2-carboxamide] as the compound, how does the EC50 read?
**A.** 673 nM

**Q.** For `COc1ccc(CNCC(C)(C)O)cc1C(=O)Nc1c(C(=O)Nc2ccc(F)c(C(F)(F)F)c2)sc2cc(C(F)(F)F)ccc12` [Example 236, N-(4-fluoro-3-(trifluoromethyl)phenyl)-3-(5-(((2-hydroxy-2-methylpropyl)amino)methyl)-2-methoxy-benzamido)-6-(trifluoromethyl) benzo[b] thiophene-2-carboxamide], which EC50 is on record?
**A.** 1390 nM

**Q.** `COc1ccc(C2CCN(C(=O)CO)C2)cc1C(=O)Nc1c(C(=O)Nc2ccc(F)c(C(F)(F)F)c2)sc2cc(C(F)(F)F)ccc12` (centres unmarked) [Example 152, N-(4-fluoro-3-(trifluoromethyl)phenyl)-3-(5-(1-(2-hydroxyacetyl)pyrrolidin-3-yl)-2-methoxy-benzamido)-6-(trifluoromethyl) benzo[b] thiophene-2-carboxamide] was tested. Which EC50 did it give?
**A.** 613 nM

**Q.** `COc1ccc(C2CCN(C(=O)CO)C2)cc1C(=O)Nc1c(C(=O)Nc2ccc(F)c(C(F)(F)F)c2)sc2cc(C(F)(F)F)ccc12` (centres unmarked) [Example 141, N-(4-fluoro-3-(trifluoromethyl)phenyl)-3-(5-(1-(2-hydroxyacetyl)pyrrolidin-3-yl)-2-methoxy-benzamido)-6-(trifluoromethyl) benzo[b] thiophene-2-carboxamide] was tested. Which EC50 did it give?
**A.** 400 nM

**Q.** `COc1ccc(C2=NOC3CC(NC(=O)CO)CC23)cc1C(=O)Nc1c(C(=O)Nc2ccc(F)c(C(F)(F)F)c2)sc2cc(C(F)(F)F)ccc12` (single isomer, unassigned) [Example 263, N-[4-fluoro-3-(trifluoromethyl)phenyl]-3-{5-[5-(2-hydroxyacetamido)-3aH,4H,5H,6H, 6aH-cyclopenta[d] [1,2]oxazol-3-yl]-2-methoxy-benzamido}-6-(trifluoromethyl)-1-benzothiophene-2-carboxamide] was tested. Which EC50 did it give?
**A.** 122 nM

**Q.** `COc1ccc(-c2cc(C(C)(C)O)on2)cc1C(=O)Nc1c(C(=O)Nc2ccc(F)c(C(F)(F)F)c2)sc2cc(C(F)(F)F)ccc12` [Example 276, N-(4-fluoro-3-(trifluoromethyl)phenyl)-3-(5-(5-(2-hydroxypropan-2-yl)isoxazol-3-yl)-2-methoxy-benzamido)-6-(trifluoromethyl) benzo[b] thiophene-2-carboxamide] was tested. Which EC50 did it give?
**A.** 204 nM

**Q.** “2-(3′-((2-((4-fluoro-3-(trifluoromethyl) phenyl) carbamoyl)-6-(trifluoromethyl) benzo[b]thiophen-3-yl) carbamoyl)-4′-methoxy-[1, 1′-biphenyl]-3-yl)-2-(tetrahydro-2H-pyran-4-carboxamido) acetic acid [Example 26]” was tested. Which EC50 did it give?
**A.** 153 nM

**Q.** For `COc1ccc(C2=NOC3CC(N)CC23)cc1C(=O)Nc1c(C(=O)Nc2ccc(F)c(C(F)(F)F)c2)sc2cc(C(F)(F)F)ccc12` (single isomer, unassigned) [Example 259, 3-(5-{5-amino-3aH,4H,5H,6H, 6aH-cyclopenta[d] [1,2]oxazol-3-yl}-2-methoxy-benzamido)-N-[4-fluoro-3-(trifluoromethyl)phenyl]-6-(trifluoromethyl)-1-benzothiophene-2-carboxamide], which EC50 is on record?
**A.** 364 nM

**Q.** `COc1ccc(C(=O)NCCCO)cc1C(=O)Nc1c(C(=O)Nc2ccc(F)c(C(F)(F)F)c2)sc2cc(C(F)(F)F)ccc12` [Example 216, N3-(2-((4-fluoro-3-(trifluoromethyl)phenyl)carbamoyl)-6-(trifluoromethyl)benzo[b]thiophen-3-yl)-N1-(3-hydroxypropyl)-4-methoxy-isophthalamide] was tested. Which EC50 did it give?
**A.** 3490 nM

**Q.** Which EC50 does the source give for `COc1ccc(CNC(C)(C)CO)cc1C(=O)Nc1c(C(=O)Nc2ccc(F)c(C(F)(F)F)c2)sc2cc(C(F)(F)F)ccc12` [Example 235, N-(4-fluoro-3-(trifluoromethyl)phenyl)-3-(5-(((1-hydroxy-2-methylpropan-2-yl)amino)methyl)-2-methoxy-benzamido)-6-(trifluoromethyl) benzo[b] thiophene-2-carboxamide] here?
**A.** 1500 nM

**Q.** With `COc1ccc(C2CCCN(C(=O)C(C)(C)O)C2)cc1C(=O)Nc1c(C(=O)Nc2ccc(F)c(C(F)(F)F)c2)sc2cc(C(F)(F)F)ccc12` (centres unmarked) [Example 92, N-[4-fluoro-3-(trifluoromethyl)phenyl]-3-{5-[1-(2-hydroxy-2-methylpropanoyl)piperidin-3-yl]-2-methoxy-benzamido}-6-(trifluoromethyl)-1-benzothiophene-2-carboxamide] as the compound, how does the EC50 read?
**A.** 165 nM

**Q.** With `COc1ccc(CNC(c2ccc(F)c(-c3ccc(OC)c(C(=O)Nc4c(C(=O)Nc5ccc(F)c(C(F)(F)F)c5)sc5cc(C(F)(F)F)ccc45)c3)c2)C(F)(F)F)cc1OC` (single isomer, unassigned) [Example 114, 3-(5′-(1-((3,4-dimethoxybenzyl)amino)-2,2,2-trifluoroethyl)-2′-fluoro-4-methoxy-[1,1′-biphenyl]-3-carboxamido)-N-(4-fluoro-3-(trifluoromethyl)phenyl)-6-(trifluoromethyl) benzo[b] thiophene-2-carboxamide] as the compound, how does the EC50 read?
**A.** 22.5 nM

**Q.** `COc1ccc(C2=NOC(C)(CO)C2)cc1C(=O)Nc1c(C(=O)Nc2ccc(F)c(C(F)(F)F)c2)sc2cc(C(F)(F)F)ccc12` (single isomer, unassigned) [Example 253, N-(4-fluoro-3-(trifluoromethyl)phenyl)-3-(5-(5-(hydroxymethyl)-5-methyl-4,5-dihydroisoxazol-3-yl)-2-methoxy-benzamido)-6-(trifluoromethyl) benzo[b] thiophene-2-carboxamide] was tested. Which EC50 did it give?
**A.** 192 nM

**Q.** For `COc1ccc(C(=O)N2CC[C@@H](O)C2)cc1C(=O)Nc1c(C(=O)Nc2ccc(F)c(C(F)(F)F)c2)sc2cc(C(F)(F)F)ccc12` [Example 175, (R)-N-(4-fluoro-3-(trifluoromethyl)phenyl)-3-(5-(3-hydroxy-pyrrolidine-1-carbonyl)-2-methoxy-benzamido)-6-(trifluoromethyl) benzo[b] thiophene-2-carboxamide], which EC50 is on record?
**A.** 374 nM
